The text below walks through data of patent US4673676A, “Pyrimidoisoquinoline derivatives useful for treating allergies” (Fujisawa Pharmaceutical Co., Ltd., priority 1983, dated 1987).

The assay deals with PCA (Passive Cutaneous Anaphylaxis) reaction. Briefly: Inhibitory effect on PCA (Passive Cutaneous Anaphylaxis) reaction. The note with it: rat, 1 mg/kg intravenously, 5 minutes before the challenge with antigen; percent inhibition of dye spot size vs control. It counts as in vivo, male SD (Spraque-Dawley) strain rats. The protocol:
A solution of egg albumin (2 mg) in B. pertussisdiphtheria-tetanus mixed vaccine (1 ml) was mixed with Freund incomplete adjuvant (1 ml) to give an emulsion. The emulsion was given subcutaneously in a single dose of 1 ml divided equally (0.25 ml) to the four foot pads of male SD (Spraque-Dawley) strain rats aged 8 weeks, each weighing about 300 g.
8 days after the immunization, blood samples were collected from femoral artery of the rats and allowed to stand under ice-cooling for 5 hours. The separated supernatant was centrifuged at 4° C. (10,000 r.p.m.×1 hour). The antisera thus obtained were stored at -80° C. prior to use.
Male SD-strain rats aged 8 weeks, weighing 250 to 300 g, were used for PCA reaction with the homologous reaginic antiserum as prepared above. Each 0.1 ml of 32 fold diluted antiserum were injected intradermally at separate sites on the back of rats clipped free of hair, and 48 hours later, 1 ml of aqueous solution containing each 5 mg of the egg albumin and Evans blue was injected intravenously to evoke PCA reaction. Test compound was given to the animals intravenously 5 minutes before the challenge with antigen. Control group received vehicle. Each dose group consisted of 4 animals. […] The results were expressed by percent inhibition values calculated from averaged values of the longest and shortest diameters for each spot in comparison with those in control group. […]

As to “N-(1H-tetrazol-5-yl)-10-(2,3-dimethylpentanoylamino)-7-methyl-4-oxo-4H-pyrimido[2,1-a]isoquinoline-3-carboxamide [Example 11]”, the Inhibitory effect is 100%.
